Measured values taken from patent US8722626B2, “Method for controlling fibrosis and other pathological deposits in tissues comprising administering a GHRP-6 composition” (Centro de Ingenieria Genetica y Biotecnologia, priority 2006, dated 2014).
Square brackets hold non-standard residues; d marks the D form. Ends that are not written are not given here. Peptide text beside a SMILES is read from it. * marks the point of attachment. dTrp(2-Me) = Cc1[nH]c2ccccc2c1C[C@@H](N)C(=O)O; Octanoyl = CCCCCCCC(=O)*

Tests used:
[1] = tested on: transgenic mice over-expressing one mutated form of the NOTCH 3 gene; experiment: Dementia of vascular origin: transgenic mice over-expressing mutated NOTCH 3 gene (CADASIL model, Example 6); type: in vivo, mouse; design: SODt (oxidative stress marker) / Cabalase (oxidative stress marker) / HPT (oxidative stress marker) / MDA (oxidative stress marker): unit not given here; conditions: 100 μg/kg i.p. twice a week, 16 weeks; for Cabalase (oxidative stress marker) / Cerebral Myo-inositol / HPT (oxidative stress marker) / MDA (oxidative stress marker) / SODt (oxidative stress marker): brain; for No. of blood vessels positive to Congo Red / No. of blood vessels positive to Nissl / No. of hemorrhagic foci. / No. of subcortical infarctions.: cerebral tissues
Protocol: This experiment was conducted to evaluate the efficacy of pharmaceutical compositions indistinctly containing one of the peptides GHRP-6, GHRP-2, hexarelin or ghrelin on the central neurofunctional involution process in transgenic mice over-expressing one mutated form of the NOTCH 3 gene in blood vessel smooth muscle cells. These animals develop in terms of months an arteriopathy similar to that of the CASADIL disease, referred to the descriptive memory, and is occurring as one of the main causes of vascular dementia. In these animals, vascular lesions also include retinal-cerebral, cerebral and cochlear vasculopathies. The beta-amiloid material present in the brain and blood vessels, the deposit of osmophilic granular material in brain and meningeal artery walls and their reduced lumen are histopathologically relevant. White-pale zones, microinfarction and hemorrhagic foci zones appear in the brain and its main nervous trunks.
Eighteen- to twenty-months-old male mice were employed when evidenced the symptoms of the disease. The animals were randomly assigned to the following experimental treatment groups: • A—Placebo group receiving the physiological saline solution. • B—Group receiving GHRP-6 at a 100 μg/kg dosage. • C—Group receiving GHRP-2 at a 100 μg/kg dosage. • D—Group receiving Ghrelin at a 100 μg/kg dosage. • E—Group receiving Hexarelin at a 100 μg/kg dosage.
Treatments were applied twice a week during 16 weeks by intraperitoneal route. When treatments concluded, autopsy studies were conducted irrespective of the clinical improvement evidenced in a great number of animals treated. Brain tissue samples including meningeal tissues were collected for biochemical and histopathological determinations. The animals received anesthesia overdosed and subjected to intra-cardiac perfusion with cold physiological saline solution to wash off the blood present in the encephala. The encephala were extracted and one encephalon was frozen in dry-ice and the other was fixed in 4% para-formaldehyde neutral. Samples were cryo-sliced at 10 μm and slices were stained with hematoxylin/eosin, Congo Red, or incubated with an antibody specific for the beta-amiloid protein. Morphometric procedures were carried out by microscopic imaging capture by a camera connected to the microscope, and the images were analyzed with the DIGIPAT software.
Number of fibrillar deposits of beta-amiloid in blood vessels.
Number of sub-cortical infarctions.
Number of sub-cortical hemorrhages.
Brain concentration of myo-inositol as indicator of aging and brain metabolism deterioration (μmol/g of tissue).
Brain oxidative stress markers.

[2] = tested on: human keloid fragments xeno-transplanted in athymic mice; experiment: Human keloid fragments xeno-transplanted into athymic mice (Example 7); type: in vivo, mouse; conditions: for No. of fields positive to collagen-specific staining: Picrosirius red and trichromic Masson's staining, 4× and 10× averaged; for No. of fields positive to collagen-specific staining / No. of microscopic fields with mast cells (20X magnif.): infiltrated once every 24 hrs during 7 days; for No. of microscopic fields with mast cells (20X magnif.): aniline blue staining; for Hydroxiproline content in the tissue / Wet weight of the graft collected: infiltrated at the edges in the implants once every 24 hrs during 7 days, 5 micrograms to 1 milligram
Source text: To study the effect of peptides GHRP-6, GHRP-2, Hexarelin and/or Ghrelin in eradicating the pathological deposits of physiological material in the skin, human keloid fragments were xeno-transplanted into the dorsal region in athymic mice. After 72 hrs of evolution, to corroborate grafting and viability of xeno-transplants, the animals (N=6) were randomly distributed into the following experimental groups: • A—Saline control group (vehicle of the active principles). • B—Group receiving GHRP-6. • C—Group receiving GHRP-2. • D—Group receiving Ghrelin. • E—Group receiving Hexarelin. • Treatments were applied once every 24 hrs during 7 days. The substances were infiltrated at the edges in the implants, for local bioavailability of the active principles, at dosages from 5 micrograms to 1 milligram. After the treatment period, the animals were sacrificed and the implants extracted to evaluate the pharmacological response to every substance. Samples were weighed and fragmented for histological studies and biochemical determinations of collagen. The fragments for histological studies were fixed in 10% formalin neutral, and those fragments for biochemical analyses were stored at −70° C. • The parameters studied were: • a—Wet weight of the graft collected. • b—Hydroxiproline content in the tissue. • c—Number of microscopic fields with tissue positive to Picrosirius red staining and trichromic Masson's staining.

## Cc1[nH]c2ccccc2c1C[C@@H](NC(=O)[C@@H](N)Cc1cnc[nH]1)C(=O)N[C@@H](C)C(=O)N[C@@H](Cc1c[nH]c2ccccc12)C(=O)N[C@H](Cc1ccccc1)C(=O)N[C@@H](CCCCN)C(N)=O [Hexarelin] (H-H[dTrp(2-Me)]AW[dF]K-NH2)
[1]
  Cabalase (oxidative stress marker): 51.19 ± 7.84
  Cerebral Myo-inositol: 11.88 ± 2.71 μmol/g of tissue
  HPT (oxidative stress marker): 54.3 ± 11.87
  MDA (oxidative stress marker): 0.284 ± 0.01
  SODt (oxidative stress marker): 10814.68 ± 33.08
  No. of blood vessels positive to Congo Red: 15.24 ± 1.24
  No. of blood vessels positive to Nissl: 11.36 ± 6.4
  No. of hemorrhagic foci.: 14.61 ± 3.31
  No. of subcortical infarctions.: 27.11 ± 3.55
[2]
  No. of fields positive to collagen-specific staining: 12.35
  No. of microscopic fields with mast cells (20X magnif.): 10.18 ± 2.98
  Hydroxiproline content in the tissue: 88.59 ± 6.58 µg/g
  Wet weight of the graft collected: 6.25 ± 1.73 a grams

## GHRP-2
[1]
  Cabalase (oxidative stress marker): 48.23 ± 14.25
  Cerebral Myo-inositol: 14.65 ± 4.38 μmol/g of tissue
  HPT (oxidative stress marker): 117 ± 13.55
  MDA (oxidative stress marker): 0.302 ± 0.01
  SODt (oxidative stress marker): 11065.49 ± 46.29
  No. of blood vessels positive to Congo Red: 18.26 ± 4.57
  No. of blood vessels positive to Nissl: 13.8 ± 6.76
  No. of hemorrhagic foci.: 11.79 ± 4.25
  No. of subcortical infarctions.: 30.13 ± 5.72
[2]
  No. of fields positive to collagen-specific staining: 18.12
  No. of microscopic fields with mast cells (20X magnif.): 11.17 ± 3.33
  Hydroxiproline content in the tissue: 84.17 ± 7.75 µg/g
  Wet weight of the graft collected: 7.14 ± 1.02 a grams

## Ghrelin: secretagogue peptide; active principle of the pharmaceutical composition (GSS(Octanoyl)FLSPEHQRVQQRKESKKPPAKLQPR; ends and bridges not checked; UniProt Q9UBU3 24-51, looked up)
[1]
  Cabalase (oxidative stress marker): 44.67 ± 11.58
  Cerebral Myo-inositol: 14.04 ± 3.85 μmol/g of tissue
  HPT (oxidative stress marker): 142.16 ± 10.01
  MDA (oxidative stress marker): 0.261 ± 0.03
  SODt (oxidative stress marker): 12290.9 ± 60.32
  No. of blood vessels positive to Congo Red: 17.67 ± 2.26
  No. of blood vessels positive to Nissl: 11.27 ± 4.61
  No. of hemorrhagic foci.: 13.06 ± 2.77
  No. of subcortical infarctions.: 26.9 ± 4.27
[2]
  No. of fields positive to collagen-specific staining: 11.27
  No. of microscopic fields with mast cells (20X magnif.): 10.71 ± 4.57
  Hydroxiproline content in the tissue: 85.23 ± 4.11 µg/g
  Wet weight of the graft collected: 6.67 ± 1.53 a grams
